Assay results: US20190252037A1 (priority 2016, published 2019)
pKd: −log10 of the molar value.

Columns and labels:
[1] = target: bat FluA polymerase-vRNA promoter complex; type: binding
FluB polymerase = type: binding, human influenza B/Memphis/13/03
bat FluA polymerase = type: binding

Pol II CTD peptide, four heptad repeats Tyr-Ser-Pro-Thr-SerP-Pro-Ser (28 amino acids), FAM-labelled at the N-terminal end for binding assays (Covalab) [28-mer SeP5 peptide]
pKd [1]: 6.05 | higher affinity for Ser5 phosphorylated compared to non-phosphorylated CTD repeats [1]: > 10 fold | pKd (FluB polymerase): 5.54 | binding in the absence of the vRNA promotor (bat FluA polymerase): independent of vRNA promoter binding
